Experimental data published in PubChem BioAssay AID330 (DTP/NCI, 2004).
“And” between values parts separate entries of the source, which are not always exact repeats. Identical values can stand only once. Toxic doses and inconclusive results are not listed.

Test system: P388 leukemia ip, CD2F1 mice, survival T/C
Test: NCI In Vivo Anticancer Drug Screen. Data for tumor model P388 Leukemia (intraperitoneal) in CD2F1 (CDF1) mice
Conditions: endpoint: median survival time, higher = longer survival
Summary of the method: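 Mice carrying the transplanted tumor received test compound or vehicle. Survival was recorded in each group, and the value is the treated-group measurement divided by that of the vehicle-treated control group.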

[1] = dose: 50.0 mg/kg/injection, schedule: Q01DX009 (ip), vehicle: saline
[2] = dose: 100.0 mg/kg/injection, schedule: Q01DX009 (ip), vehicle: saline
[3] = dose: 200.0 mg/kg/injection, schedule: Q01DX009 (ip), vehicle: saline
[4] = dose: 60.0 mg/kg/injection, schedule: Q01DX005 (ip), vehicle: saline with Tween-80
[5] = dose: 120.0 mg/kg/injection, schedule: Q01DX005 (ip), vehicle: saline with Tween-80
[6] = dose: 240.0 mg/kg/injection, schedule: Q01DX005 (ip), vehicle: saline with Tween-80
[7] = dose: 50.0 mg/kg/injection, schedule: Q01DX005 (ip), vehicle: Klucel (hydroxypropylcellulose) (HPC)
[8] = dose: 100.0 mg/kg/injection, schedule: Q01DX005 (ip), vehicle: Klucel (hydroxypropylcellulose) (HPC)
[9] = dose: 200.0 mg/kg/injection, schedule: Q01DX005 (ip), vehicle: Klucel (hydroxypropylcellulose) (HPC)
[10] = dose: 100.0 mg/kg/injection, schedule: Q01DX009 (ip), vehicle: saline with Tween-80
[11] = dose: 3.13 mg/kg/injection, schedule: Q01DX009 (ip), vehicle: distilled water + Tween-80
[12] = dose: 6.25 mg/kg/injection, schedule: Q01DX009 (ip), vehicle: distilled water + Tween-80
[13] = dose: 12.5 mg/kg/injection, schedule: Q01DX009 (ip), vehicle: distilled water + Tween-80
[14] = dose: 25.0 mg/kg/injection, schedule: Q01DX009 (ip), vehicle: distilled water + Tween-80
[15] = dose: 50.0 mg/kg/injection, schedule: Q01DX005 (ip), vehicle: saline
[16] = dose: 100.0 mg/kg/injection, schedule: Q01DX005 (ip), vehicle: saline
[17] = dose: 200.0 mg/kg/injection, schedule: Q01DX005 (ip), vehicle: saline
[18] = dose: 50.0 mg/kg/injection, schedule: Q01DX005 (ip), vehicle: saline with Tween-80
[19] = dose: 100.0 mg/kg/injection, schedule: Q01DX005 (ip), vehicle: saline with Tween-80
[20] = dose: 200.0 mg/kg/injection, schedule: Q01DX005 (ip), vehicle: saline with Tween-80

With `CC1=NN(c2cccc(S(=O)(=O)O)c2)C(=O)C1N=Nc1cc(Cl)cc(S(=O)(=O)O)c1O.CC1=NN(c2cccc(S(=O)(=O)O)c2)C(=O)C1N=Nc1cc(Cl)cc(S(=O)(=O)O)c1O.[Cr]` (stereo unspecified) the T/C [1] was 111 % of control and 119 % of control, the T/C [2] was 120 % of control and 122 % of control and the T/C [3] was 123 % of control. For the same compound, the T/C (dose: 400.0 mg/kg/injection, schedule: Q01DX009 (ip), vehicle: saline) was 122 % of control.
`CC(=O)Oc1cc2c(cc1OC(C)=O)OCC(c1ccc(C)cc1)C2` (stereo unspecified) was tested, and the T/C [4] was 105 % of control, the T/C [5] was 108 % of control and the T/C [6] was 107 % of control.
With `COc1cc(C2c3cc4c(cc3CCN2C(=O)c2ccccc2)OCO4)cc(OC)c1OC` (stereo unspecified) the T/C [7] was 93 % of control, the T/C [8] was 91 % of control and the T/C [9] was 93 % of control.
In the case of `CC1CCC(n2cnc3c(Cl)ncnc32)O1` (stereo unspecified), the T/C (dose: 25.0 mg/kg/injection, schedule: Q01DX005 (ip), vehicle: Klucel (hydroxypropylcellulose) (HPC)) is reported as 97 % of control, the T/C [7] is reported as 103 % of control and the T/C [8] is reported as 110 % of control. For the same compound, the T/C [9] was 112 % of control and the T/C (dose: 400.0 mg/kg/injection, schedule: Q01DX005 (ip), vehicle: Klucel (hydroxypropylcellulose) (HPC)) was 114 % of control.
In the case of `O=C(Nc1ccccc1)OCC(Cl)(Cl)Cl`, the T/C [10] is reported as 100 % of control, the T/C (dose: 200.0 mg/kg/injection, schedule: Q01DX009 (ip), vehicle: saline with Tween-80) is reported as 100 % of control and the T/C (dose: 400.0 mg/kg/injection, schedule: Q01DX009 (ip), vehicle: saline with Tween-80) is reported as 119 % of control.
In the case of `CCn1c(Cl)c(C=O)c2ccccc21`, the T/C (dose: 100.0 mg/kg/injection, schedule: Q01DX001 (ip), vehicle: Klucel (hydroxypropylcellulose) (HPC)) is reported as 100 % of control, the T/C (dose: 200.0 mg/kg/injection, schedule: Q01DX001 (ip), vehicle: Klucel (hydroxypropylcellulose) (HPC)) is reported as 92 % of control and the T/C (dose: 400.0 mg/kg/injection, schedule: Q01DX001 (ip), vehicle: Klucel (hydroxypropylcellulose) (HPC)) is reported as 95 % of control.
For `CC(C)NC(=O)OCc1c(COC(=O)NC(C)C)c(-c2ccc(F)cc2F)n2c1CCC2`, the T/C [11] was 168 % of control, the T/C [12] was 158 % of control and 162 % of control and the T/C [13] was 174 % of control and 180 % of control. The T/C [14] was 99 % of control.
With `Cc1nn(-c2ccccc2)c2c1C(c1ccccc1)C(C#N)=C(N)O2` (stereo unspecified) the T/C (dose: 50.0 mg/kg/injection, schedule: Q01DX009 (ip), vehicle: Klucel (hydroxypropylcellulose) (HPC)) was 100 % of control, the T/C (dose: 100.0 mg/kg/injection, schedule: Q01DX009 (ip), vehicle: Klucel (hydroxypropylcellulose) (HPC)) was 100 % of control and the T/C (dose: 200.0 mg/kg/injection, schedule: Q01DX009 (ip), vehicle: Klucel (hydroxypropylcellulose) (HPC)) was 100 % of control.
In the case of `CS(=O)CC(=N\O)/C(CS(C)=O)=N\O` (stereo unspecified), the T/C (dose: 60.0 mg/kg/injection, schedule: Q01DX005 (ip), vehicle: saline) is reported as 104 % of control, the T/C (dose: 120.0 mg/kg/injection, schedule: Q01DX005 (ip), vehicle: saline) is reported as 108 % of control and the T/C (dose: 240.0 mg/kg/injection, schedule: Q01DX005 (ip), vehicle: saline) is reported as 103 % of control.
`COC(=O)C(C)CP(=O)(OC)OC` (stereo unspecified) was tested, and the T/C [15] was 99 % of control, the T/C [16] was 97 % of control and the T/C [17] was 99 % of control.
`CC(C)(C)C1C/C(=C2\COC(=O)C2=O)NN1c1ccccc1` (stereo unspecified) was tested, and the T/C [1] was 92 % of control, the T/C [2] was 91 % of control and the T/C [3] was 91 % of control.
With `C/C(=C/c1nc2ccccc2[nH]1)c1ccccc1` the T/C (dose: 25.0 mg/kg/injection, schedule: Q01DX005 (ip), vehicle: saline with Tween-80) was 100 % of control, the T/C [18] was 100 % of control and 107 % of control and the T/C [19] was 121 % of control and 96 % of control. The T/C [20] was 95 % of control and 96 % of control.
With `O=C1NCC(Br)C(=O)N1` (stereo unspecified) the T/C (dose: 25.0 mg/kg/injection, schedule: Q01DX009 (ip), vehicle: other) was 113 % of control, the T/C (dose: 25.0 mg/kg/injection, schedule: Q01DX009 (ip), vehicle: saline + Tween-80 + alcohol) was 112 % of control and the T/C (dose: 50.0 mg/kg/injection, schedule: Q01DX009 (ip), vehicle: saline + Tween-80 + alcohol) was 121 % of control. For the same compound, the T/C (dose: 100.0 mg/kg/injection, schedule: Q01DX009 (ip), vehicle: saline + Tween-80 + alcohol) was 122 % of control.
In the case of `CC(C(=O)O)c1cn(Cc2ccccc2)c2ccccc12` (stereo unspecified), the T/C [4] is reported as 100 % of control, the T/C [5] is reported as 102 % of control and the T/C [6] is reported as 96 % of control.
In the case of `[Mn+2].[NH-]CC(=O)NC(Cc1ccccc1)C(=O)O.[NH-]CC(=O)NC(Cc1ccccc1)C(=O)O` (stereo unspecified), the T/C (dose: 100.0 mg/kg/injection, schedule: Q04DX003 (ip), vehicle: saline) is reported as 113 % of control and the T/C (dose: 200.0 mg/kg/injection, schedule: Q04DX003 (ip), vehicle: saline) is reported as 116 % of control.
In the case of `CSc1nc(SC)c2c(CN=[N+]=[N-])c(Br)n(Cc3ccccc3)c2n1`, the T/C (dose: 3.13 mg/kg/injection, schedule: Q01DX001 (ip), vehicle: saline with Tween-80) is reported as 98 % of control, the T/C (dose: 6.25 mg/kg/injection, schedule: Q01DX001 (ip), vehicle: saline with Tween-80) is reported as 86 % of control and the T/C (dose: 25.0 mg/kg/injection, schedule: Q01DX001 (ip), vehicle: saline with Tween-80) is reported as 86 % of control.
With `Cc1noc(NS(=O)(=O)c2ccc(N=Nc3cc(N=Nc4ccc(S(=O)(=O)Nc5onc(C)c5C)cc4)c4c(NC(=O)C(Cl)Cl)cccc4c3OC(=O)C(Cl)Cl)cc2)c1C` the T/C (dose: 50.0 mg/kg/injection, schedule: Q01DX009 (ip), vehicle: saline with Tween-80) was 94 % of control and the T/C [10] was 100 % of control.
In the case of `COc1cc2c(NCCCCCCO[N+](=O)[O-])ncnc2c(OC)c1OC`, the T/C [7] is reported as 100 % of control, the T/C [8] is reported as 103 % of control and the T/C [9] is reported as 100 % of control.
With `COc1cc2c3cc1Oc1cc(ccc1O)C[C@@H]1c4c(cc(OC)c(O)c4Oc4ccc(cc4)C[C@@H]3[N+](C)(C)CC2)CC[N+]1(C)C` the T/C (dose: 0.06 mg/kg/injection, schedule: Q01DX009 (ip), vehicle: saline with Tween-80) was 96 % of control, the T/C (dose: 0.13 mg/kg/injection, schedule: Q01DX009 (ip), vehicle: saline with Tween-80) was 92 % of control and the T/C (dose: 0.25 mg/kg/injection, schedule: Q01DX009 (ip), vehicle: saline with Tween-80) was 89 % of control.
In the case of `CC(=O)[O][Hg][CH]1C2CC3C(C2OC(C)=O)C31` (stereo unspecified), the T/C (dose: 6.25 mg/kg/injection, schedule: Q01DX009 (ip), vehicle: saline with Tween-80) is reported as 105 % of control and the T/C (dose: 12.5 mg/kg/injection, schedule: Q01DX009 (ip), vehicle: saline with Tween-80) is reported as 112 % of control.
With `CN(/N=C/c1ccc2c(c1)OCO2)c1ccc([N+](=O)[O-])cc1` the T/C [7] was 89 % of control and the T/C [8] was 89 % of control.
In the case of `CC(=O)Oc1c([N+](=O)[O-])cccc1[N+](=O)[O-]`, the T/C [11] is reported as 111 % of control, the T/C (dose: 6.25 mg/kg/injection, schedule: Q01DX009 (ip), vehicle: clinical formulation) is reported as 100 % of control and the T/C [12] is reported as 100 % of control and 112 % of control. The T/C (dose: 12.5 mg/kg/injection, schedule: Q01DX009 (ip), vehicle: clinical formulation) was 103 % of control, the T/C [13] was 107 % of control and the T/C (dose: 25.0 mg/kg/injection, schedule: Q01DX009 (ip), vehicle: clinical formulation) was 108 % of control. For the same compound, the T/C [14] was 107 % of control, the T/C (dose: 50.0 mg/kg/injection, schedule: Q01DX009 (ip), vehicle: distilled water + Tween-80) was 109 % of control and 115 % of control and the T/C (dose: 100.0 mg/kg/injection, schedule: Q01DX009 (ip), vehicle: distilled water + Tween-80) was 96 % of control.
`C=CC1C(=O)N(C)[C@H](C(C)(C)C)N1C(=O)c1ccccc1` (stereo partly specified) was tested, and the T/C [15] was 100 % of control, the T/C [16] was 93 % of control and the T/C [17] was 113 % of control.
`Nc1nc(N)nc(N/C=C/C(=O)O)n1` was tested, and the T/C (dose: 50.0 mg/kg/injection, schedule: Q01DX005 (ip), vehicle: water) was 99 % of control, the T/C (dose: 100.0 mg/kg/injection, schedule: Q01DX005 (ip), vehicle: water) was 105 % of control and the T/C (dose: 200.0 mg/kg/injection, schedule: Q01DX005 (ip), vehicle: water) was 106 % of control.
`COc1ccc2c(c1OC)[C@]13CCCC[C@@H]1[C@H](C2)N(C)CC3` was tested, and the T/C (dose: 12.5 mg/kg/injection, schedule: Q04DX003 (ip), vehicle: saline) was 101 % of control, the T/C (dose: 25.0 mg/kg/injection, schedule: Q04DX003 (ip), vehicle: saline) was 100 % of control and the T/C (dose: 50.0 mg/kg/injection, schedule: Q04DX003 (ip), vehicle: saline) was 100 % of control.
In the case of `CCCNC(=O)c1ccccc1C(=O)NC1(C(=O)NCCC)CCCC1`, the T/C [18] is reported as 97 % of control, the T/C [19] is reported as 96 % of control and the T/C [20] is reported as 96 % of control.
